In patent publication US9365522B2, “Pyrazole amide derivative” (AMGEN INC., priority 2015, dated 2016):

Target: T1, human RORγ-LBD (Homo sapiens, UniProt P51449)
T1 construct: made in house; host or cells: E. coli (BL-21)
T1 sequence (P51449 262-518): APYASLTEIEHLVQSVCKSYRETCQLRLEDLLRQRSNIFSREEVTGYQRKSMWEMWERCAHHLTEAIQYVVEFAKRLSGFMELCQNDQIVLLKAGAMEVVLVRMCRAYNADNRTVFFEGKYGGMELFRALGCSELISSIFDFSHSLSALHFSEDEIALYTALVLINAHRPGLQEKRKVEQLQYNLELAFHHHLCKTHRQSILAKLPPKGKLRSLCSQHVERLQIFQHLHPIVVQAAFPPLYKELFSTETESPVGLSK
Experiment: ROR gamma coactivator peptide recruitment Alphascreen assay (RORγ-LBD binding to GRIP1 coactivator peptide)
Format: biochemical
Conditions: 5 nM human RORγ-LBD, 30 nM 7-β-hydroxycholesterol, 50 nM biotinylated GRIP1 coactivator peptide, overnight incubation at room temperature; read-out: result (pIC50, RORγ coactivator peptide recruitment Alphascreen assay) (converted)
How it was run: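 Alphascreen proximity read-out after overnight room-temperature incubation, yielding pIC50 from 1-in-2 compound series (2.5% DMSO final). Mixture: 50 nM biotin-GRIP1 peptide, 30 nM 7-β-hydroxycholesterol agonist, 5 nM recombinant 6×His:Flag human RORγ-LBD (aa 262-518), 50 mM HEPES pH 7.4.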

Compound | IC50
CC(C)(C)CN(CC(=O)c1c(Cl)cncc1Cl)C(=O)c1cnn([C@H]2C[C@@H]3[C@H](C2)[C@@H]3C(=O)O)c1C(F)(F)F [Example 770, (1R,3r,5S,6s)-3-(4-((2-(3,5-dichloro-4-pyridinyl)-2-oxoethyl)(2,2-dimethylpropyl)carbamoyl)-5-(trifluoromethyl)-1H-pyrazol-1-yl)bicyclo[3.1.0]hexane-6-carboxylic acid] | 42.7 nM
CC(C)(C)CN(CC(=O)c1c(Cl)cncc1Cl)C(=O)c1cnn([C@H]2C[C@]3(C[C@H](C(=O)O)C3)C2)c1C(F)(F)F (stereo partly shown) [Example 771, (4r)-6-(4-((2-(3,5-dichloro-4-pyridinyl)-2-oxoethyl)(2,2-dimethylpropyl)carbamoyl)-5-(trifluoromethyl)-1H-pyrazol-1-yl)spiro[3.3]heptane-2-carboxylic acid] | 6.31 nM
C[C@H](C(=O)O)[C@H]1C[C@H](n2ncc(C(=O)N(CC(=O)c3c(Cl)cccc3Cl)[C@H]3C[C@@H]4[C@H](C3)C4(C)C)c2C(F)(F)F)C1 [Example 772, (S)-2-((1R,3S)-3-(4-((2-(2,6-dichlorophenyl)-2-oxoethyl)((1R,3r,5S)-6,6-dimethylbicyclo[3.1.0]hexan-3-yl)carbamoyl)-5-(trifluoromethyl)-1H-pyrazol-1-yl)cyclobutyl)propanoic acid] | 3.72 nM
C[C@@H]1C[C@@H](n2ncc(C(=O)N(CC(=O)c3c(Cl)cncc3Cl)C[C@@H]3CCC(C)(C)O3)c2C(F)(F)F)CC[C@@H]1C(=O)O [Example 774, (1S,2R,4S)-4-(4-((2-(3,5-dichloro-4-pyridinyl)-2-oxoethyl)(((2S)-5,5-dimethyltetrahydro-2-furanyl)methyl)carbamoyl)-5-(trifluoromethyl)-1H-pyrazol-1-yl)-2-methylcyclohexanecarboxylic acid] | 21.9 nM
CC1(CN(CC(=O)c2c(Cl)cncc2Cl)C(=O)c2cnn([C@H]3CC[C@H](CC(=O)O)CC3)c2C(F)(F)F)CCC1 [Example 775, (trans-4-(4-((2-(3,5-dichloro-4-pyridinyl)-2-oxoethyl)((1-methylcyclobutyl)methyl)carbamoyl)-5-(trifluoromethyl)-1H-pyrazol-1-yl)cyclohexyl)acetic acid] | 3.02 nM
C[C@]1(C(=O)O)CC[C@H](n2ncc(C(=O)N(CCC3CC3)CC(=O)c3c(Cl)cncc3Cl)c2C(F)(F)F)CC1 [Example 776, trans-4-(4-((2-cyclopropylethyl)(2-(3,5-dichloro-4-pyridinyl)-2-oxoethyl)carbamoyl)-5-(trifluoromethyl)-1H-pyrazol-1-yl)-1-methylcyclohexanecarboxylic acid] | 21.9 nM
Cc1cc(Cl)c(C(=O)CN(CCC2CC2)C(=O)c2cnn([C@H]3CC[C@](C)(C(=O)O)CC3)c2C(F)(F)F)c(Cl)c1 [Example 777, trans-4-(4-((2-cyclopropylethyl)(2-(2,6-dichloro-4-methylphenyl)-2-oxoethyl)carbamoyl)-5-(trifluoromethyl)-1H-pyrazol-1-yl)-1-methylcyclohexanecarboxylic acid] | 4.27 nM
Cc1cc(F)c(C(=O)CN(CC2(C)CCC2)C(=O)c2cnn([C@H]3CC[C@](C)(C(=O)O)CC3)c2C(F)(F)F)c(Cl)c1 [Example 778, trans-4-(4-((2-(2-chloro-6-fluoro-4-methylphenyl)-2-oxoethyl)((1-methylcyclobutyl)methyl)carbamoyl)-5-(trifluoromethyl)-1H-pyrazol-1-yl)-1-methylcyclohexanecarboxylic acid] | 4.47 nM
Cc1cc(Cl)c(C(=O)CN(CCOC(C)(C)C)C(=O)c2cnn([C@H]3CC[C@](C)(C(=O)O)CC3)c2C(F)(F)F)c(Cl)n1 [Example 779, trans-4-(4-((2-(2,4-dichloro-6-methyl-3-pyridinyl)-2-oxoethyl)(2-((2-methyl-2-propanyl)oxy)ethyl)carbamoyl)-5-(trifluoromethyl)-1H-pyrazol-1-yl)-1-methylcyclohexanecarboxylic acid] | 18.2 nM
C[C@H](C(=O)O)[C@H]1CC[C@H](n2ncc(C(=O)N(CC(=O)c3c(Cl)cncc3Cl)Cc3cc(F)cc(F)c3)c2C(F)(F)F)CC1 [Example 780, 2-(trans-4-(4-((2-(3,5-dichloro-4-pyridinyl)-2-oxoethyl)(3,5-difluorobenzyl)carbamoyl)-5-(trifluoromethyl)-1H-pyrazol-1-yl)cyclohexyl)propanoic acid] | 7.59 nM
C[C@@H]1C[C@@H](n2ncc(C(=O)N(CC(=O)c3c(Cl)cccc3Cl)CC3(C)CCC3)c2C(F)(F)F)CC[C@@H]1C(=O)O [Example 781, (1S,2R,4S)-4-(4-((2-(2,6-dichlorophenyl)-2-oxoethyl)((1-methylcyclobutyl)methyl)carbamoyl)-5-(trifluoromethyl)-1H-pyrazol-1-yl)-2-methylcyclohexanecarboxylic acid] | 1.55 nM
C[C@@H]1C[C@@H](n2ncc(C(=O)N(CC(=O)c3c(Cl)cncc3Cl)CC3(C)CCC3)c2C(F)(F)F)CC[C@@H]1C(=O)O [Example 782, (1S,2R,4S)-4-(4-((2-(3,5-dichloro-4-pyridinyl)-2-oxoethyl)((1-methylcyclobutyl)methyl)carbamoyl)-5-(trifluoromethyl)-1H-pyrazol-1-yl)-2-methylcyclohexanecarboxylic acid] | 3.98 nM
Cc1cc(Cl)c(C(=O)CN(C[C@@H]2CCC(C)(C)O2)C(=O)c2cnn([C@H]3CC[C@](C)(C(=O)O)CC3)c2C(F)(F)F)c(Cl)c1 [Example 783, trans-4-(4-((2-(2,6-dichloro-4-methylphenyl)-2-oxoethyl)(((2S)-5,5-dimethyltetrahydro-2-furanyl)methyl)carbamoyl)-5-(trifluoromethyl)-1H-pyrazol-1-yl)-1-methylcyclohexanecarboxylic acid] | 3.89 nM
C[C@H](C(=O)O)[C@H]1CC[C@@H](n2ncc(C(=O)N(CC(=O)c3c(Cl)cncc3Cl)Cc3cc(F)cc(F)c3)c2C(F)(F)F)CC1 [Example 786, 2-(cis-4-(4-((2-(3,5-dichloro-4-pyridinyl)-2-oxoethyl)(3,5-difluorobenzyl)carbamoyl)-5-(trifluoromethyl)-1H-pyrazol-1-yl)cyclohexyl)propanoic acid] | 34.7 nM
C[C@@H]1C[C@@H](n2ncc(C(=O)N(CC(=O)c3c(Cl)cccc3Cl)[C@H]3C[C@@H]4[C@H](C3)C4(C)C)c2C(F)(F)F)CC[C@@H]1C(=O)O [Example 787, (1S,2R,4S)-4-(4-((2-(2,6-dichlorophenyl)-2-oxoethyl)((1R,3r,5S)-6,6-dimethylbicyclo[3.1.0]hex-3-yl)carbamoyl)-5-(trifluoromethyl)-1H-pyrazol-1-yl)-2-methylcyclohexanecarboxylic acid] | 2.09 nM
C[C@@H]1C[C@@H](n2ncc(C(=O)N(CC(=O)c3c(Cl)cncc3Cl)CC3(C)CC3)c2C(F)(F)F)CC[C@@H]1C(=O)O [Example 788, (1S,2R,4S)-4-(4-((2-(3,5-dichloro-4-pyridinyl)-2-oxoethyl)((1-methylcyclopropyl)methyl)carbamoyl)-5-(trifluoromethyl)-1H-pyrazol-1-yl)-2-methylcyclohexanecarboxylic acid] | 17.4 nM
C[C@]1(CC(=O)O)CC[C@H](n2ncc(C(=O)N(CC(=O)c3c(Cl)cncc3Cl)Cc3cc(F)cc(F)c3)c2C(F)(F)F)CC1 [Example 789, (trans-4-(4-((2-(3,5-dichloro-4-pyridinyl)-2-oxoethyl)(3,5-difluorobenzyl)carbamoyl)-5-(trifluoromethyl)-1H-pyrazol-1-yl)-1-methylcyclohexyl)acetic acid] | 2.09 nM
C[C@]1(CC(=O)O)CC[C@@H](n2ncc(C(=O)N(CC(=O)c3c(Cl)cncc3Cl)Cc3cc(F)cc(F)c3)c2C(F)(F)F)CC1 [Example 790, (cis-4-(4-((2-(3,5-dichloro-4-pyridinyl)-2-oxoethyl)(3,5-difluorobenzyl)carbamoyl)-5-(trifluoromethyl)-1H-pyrazol-1-yl)-1-methylcyclohexyl)acetic acid] | 34.7 nM
CC(C)(C)CN(CC(=O)c1c(Cl)cncc1Cl)C(=O)c1cnn([C@H]2CC[C@](C)(CC(=O)O)CC2)c1C(F)(F)F [Example 791, (trans-4-(4-((2-(3,5-dichloro-4-pyridinyl)-2-oxoethyl)(2,2-dimethylpropyl)carbamoyl)-5-(trifluoromethyl)-1H-pyrazol-1-yl)-1-methylcyclohexyl)acetic acid] | 5.25 nM
CC(C)(C)CN(CC(=O)c1c(Cl)cncc1Cl)C(=O)c1cnn([C@H]2CC[C@@](C)(CC(=O)O)CC2)c1C(F)(F)F [Example 792, (cis-4-(4-((2-(3,5-dichloro-4-pyridinyl)-2-oxoethyl)(2,2-dimethylpropyl)carbamoyl)-5-(trifluoromethyl)-1H-pyrazol-1-yl)-1-methylcyclohexyl)acetic acid] | 102 nM
C[C@@H]1C[C@H](n2ncc(C(=O)N(CC(=O)c3c(Cl)cncc3Cl)CC(C)(C)C)c2C(F)(F)F)CC[C@H]1C(=O)O [Example 793, (1R,2R,4R)-4-(4-((2-(3,5-dichloro-4-pyridinyl)-2-oxoethyl)(2,2-dimethylpropyl)carbamoyl)-5-(trifluoromethyl)-1H-pyrazol-1-yl)-2-methylcyclohexanecarboxylic acid] | 25.1 nM
C[C@]1(C(=O)O)CC[C@H](n2ncc(C(=O)N(CC(=O)c3c(Cl)ccc(F)c3Cl)CC3(C(F)(F)F)CC3)c2C(F)(F)F)CC1 [Example 798, (1r,4r)-4-(4-((2-(2,6-dichloro-3-fluorophenyl)-2-oxoethyl)((1-(trifluoromethyl)cyclopropyl)methyl)carbamoyl)-5-(trifluoromethyl)-1H-pyrazol-1-yl)-1-methylcyclohexanecarboxylic acid] | 3.16 nM
